According to patent publication US6242235A, “Polymerase stabilization by polyethoxylated amine surfactants” (priority 1999, dated 2001):

How the values were obtained:
Taq polymerase [1] = target: T1, Taq polymerase (Thermus aquaticus, UniProt P19821); experiment: Half-life of Taq polymerase activity at 95° C. in surfactant solutions (3H-TTP incorporation); format: biochemical; settings: incubated at 95° C.; for estimated half-life of Taq polymerase: Example 2: 0.1% surfactant, control without surfactant less than 5 min; for Taq polymerase half life: Example 7: 0.005% surfactant, 2.5 U/100 μl, estimated graphically
Description: A 10× buffer was made with each of these surfactant solutions. The 10× buffer for each consisted of: 500 mM KCl, 100 mM Tris-HCl pH 9.0 (at 25° C.), 1% surfactant (made by a 1:10 dilution of the detergent solution described above into the buffer during formulation). As described in Example 1, the Taq polymerase used in these experiments was purified without exposure to any detergents. Each of these buffer solutions was used to formulate a Taq-surfactant solution as follows: […]
A control solution was made as indicated above, except that the 32 μl of 10× buffer without surfactant was used. The solutions were incubated at 95° C. and samples (10 μl) were removed and placed in a fresh tube, and kept on ice at 0, 5, 10, 30, 60, 90, and 120 min. The samples were then assayed for Taq polymerase activity.
Taq polymerase activity was determined by measuring the amount of tritiated deoxynucleotide base a sample of the enzyme could incorporate. The assay was performed as follows. Solutions of dATP, dCTP, dGTP and dTTP (Promega U120, U122, U121 and U123, respectively) were diluted to 2 mM final concentration (originally at 100 mM) using nanopure water. Tritiated nucleotide ^3 H-TTP was obtained from Amersham (TRK424, 250 μCi/250 μl). The template for incorporation was calf thymus DNA (Sigma, D-1501) dissolved in 10 mM Tris-HCl pH 7.3, 5 mM MgCl2 to a final concentration of 2.5 mg/ml. Prior to use, the DNA was treated with 1 μl of a 1:10 dilution of RQ1 DNAse (Promega M610) (dilution made using 10 mM Tris-HCl, 5 mM MgCl2) and incubated for 10 min at 37° C. followed by 30 min at 68° C. This was done to "activate" the DNA for incorporation. A 10× Taq assay buffer was made containing 500 mM Tris-HCl (pH 9.0 at 25° C.), 500 mM NaCl, and 100 mM MgCl2.
Time point samples (10 μl) were added to 40 μl of the reaction mix and then incubated at 74° C. for 10 min. After incubation, the solution was diluted with 500 μl of ice cold 10% TCA. The TCA solution was filtered through a GF/A filter. The tube was washed three times with 1 ml of 5% TCA and the wash was then filtered onto the same filter. The filter was then rinsed 3 times with 5% TCA and then rinsed with acetone. The filters were dried 10 min. with a heat lamp and then the radioactivity was counted. The percent of activity present at any time point was determined by dividing the net counts for the sample at that time point by the net counts of the 0 min sample for that enzyme solution and then multiplying by 100%. The percent activity of the solution was plotted versus time. The points were then connected by a smooth curve and the estimated half-life of the enzyme under the conditions chosen was estimated based on the point where the line crossed 50% activity.
In this example, the ability of ethoxylated amines to stabilize thermostable proteins at high temperatures was examined. Solutions of detergent-free Taq polymerase (2.5 U/100 μl of solution) containing 0.005% Tomah E-18-15, Tomah E-18-5, Tween 20, NP-40, and TRITON X-100 were produced as in Example 2. These solutions were incubated at 95° C. and samples were removed at 0, 10, 30, 60 and 120 min and analyzed as in Example 2. The half lives of the enzyme in the presence of these surfactants was estimated graphically. The solutions containing Tomah E-18-5, TRITON X-100 and NP-40 all had Taq polymerase half lives of about 8 min.

Taq polymerase [2] = target: T1, Taq polymerase; experiment: PCR based assay for Taq polymerase stabilization by detergents (1.5 kb amplification product on agarose gel); format: biochemical; settings: 2 μl Taq polymerase (10 U/μl)
Description: This Example describes the development of a PCR based assay for polymerase stabilization by detergents (i.e., surfactants). Conditions were defined in which the polymerase was incapable of producing a detectable amplification product in the absence of detergent, but could produce detectable amplification in the presence of a stabilizing detergent, such as Tween 20.
The following reaction mixture was assembled:
pGEM 1 uc (Part # E1541) and 25 mM MgCl2 (Part # M1902) were obtained from Promega Corp, Madison Wis. The 10× Taq buffer formulation was: 500 mM KCl, 100 mM Tris-Cl (pH 9.0 at 25° C.). The 10× Taq buffer was made by dissolving KCl and Trizma in nanopure water and adjusting the pH with concentrated hydrochloric acid. Nanopure water was made by autoclaving deionized water treated by a NANOPURE water system. The 2 mM dNTP mix was made by mixing 100 mM stocks of dATP, dCTP, dGTP, and dTTP (Promega U120, U122, U121 and U123, respectively) with nanopure water to produce a solution containing a 2 mM concentration of each nucleotide. The DNA sequences of the primers used were […] (SEQ ID NO: 1) and […] (SEQ ID NO 2).
One hundred microliters of the reaction mixture were placed into a 0.2 ml tube and 50 μl placed in five additional tubes. […]
The reaction products were analyzed by agarose gel electrophoresis. […]

[3] = McCutcheon's Volume 1: Emulsifiers and Detergents North American Edition, 1996; cited from earlier work

T1 sequence (P19821 whole entry): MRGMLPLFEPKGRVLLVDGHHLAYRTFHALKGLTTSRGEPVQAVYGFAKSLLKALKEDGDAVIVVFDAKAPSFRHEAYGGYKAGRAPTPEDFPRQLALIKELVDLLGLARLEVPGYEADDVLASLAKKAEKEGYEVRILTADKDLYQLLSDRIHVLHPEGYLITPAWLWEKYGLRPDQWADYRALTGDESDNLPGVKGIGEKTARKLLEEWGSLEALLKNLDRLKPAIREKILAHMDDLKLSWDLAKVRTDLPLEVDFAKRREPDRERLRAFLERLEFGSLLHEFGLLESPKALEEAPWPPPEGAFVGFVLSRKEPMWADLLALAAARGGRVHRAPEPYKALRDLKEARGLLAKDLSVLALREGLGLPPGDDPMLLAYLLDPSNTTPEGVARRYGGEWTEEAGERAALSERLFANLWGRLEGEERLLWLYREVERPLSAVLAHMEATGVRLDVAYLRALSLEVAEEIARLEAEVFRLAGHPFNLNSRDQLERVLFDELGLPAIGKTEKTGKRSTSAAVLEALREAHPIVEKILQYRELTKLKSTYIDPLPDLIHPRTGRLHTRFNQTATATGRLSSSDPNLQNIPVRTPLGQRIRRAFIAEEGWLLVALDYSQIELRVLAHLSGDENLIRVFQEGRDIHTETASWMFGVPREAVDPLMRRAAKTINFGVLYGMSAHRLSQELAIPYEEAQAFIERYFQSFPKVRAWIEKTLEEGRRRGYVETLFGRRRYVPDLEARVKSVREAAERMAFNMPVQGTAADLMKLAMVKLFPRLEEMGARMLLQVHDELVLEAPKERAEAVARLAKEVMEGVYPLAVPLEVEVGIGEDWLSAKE

| Compound | estimated half-life of Taq polymerase (Taq polymerase [1]) | Taq polymerase half life (Taq polymerase [1]) | other results |
| --- | --- | --- | --- |
| C[C@H](CCC(=O)NCCC[N+](C)(C)CCCS(=O)(=O)[O-])[C@H]1CC[C@H]2[C@@H]3[C@H](O)C[C@@H]4C[C@H](O)CC[C@]4(C)[C@H]3C[C@H](O)[C@]12C [Chaps] | approximately 5 min |  |  |
| C[C@H](CCC(=O)NCCC[N+](C)(C)CC(O)CS(=O)(=O)[O-])[C@H]1CC[C@H]2[C@@H]3[C@H](O)C[C@@H]4C[C@H](O)CC[C@]4(C)[C@H]3C[C@H](O)[C@]12C (some centres unmarked) [Chapso] | approximately 5 min |  |  |
| CCCCCCCCCC[N+](C)(C)CCCS(=O)(=O)[O-] [N-decyl-n,n-dimethyl-3-ammonium-1-propanesulfonate] |  |  | 1.5 kb DNA band (Taq polymerase [2]; Example 3, second set: 5 μl of 10% surfactant in 95 μl mix, no band without surfactant): failed to produce a visible 1.5 kb DNA fragment; 1.5 kb DNA band (Taq polymerase [2]; Example 3: 1 μl of 10% surfactant in 99 μl mix, weaker but visible band without surfactant): band intermediate in intensity |
| TRITON X-100 | approximately 40 min | about 8 min | HLB Index [3]: 13.5 |
| ethoxylated alky phenol [NP-40] |  | about 8 min |  |
